Measurements reported in PMC6934184, “Selective DNA-PKcs inhibition extends the therapeutic index of localized radiotherapy and chemotherapy” (The Journal of Clinical Investigation, 2019).

Target: T1, PDGFRA V561D (Homo sapiens, UniProt P16234, V561D)
T1 construct: purchased Thermo Fisher Scientific (Life Technologies) SelectScreen
Experiment: SelectScreen Z'LYTE
Assay type: biochemical
How it was run: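 NU5455 was profiled across the SelectScreen Broad panel of kinase activity and binding assays. Z'LYTE reactions such as CSF1R ran at apparent Km ATP, while the Adapta CAMK1 assay used ATP listed as 10. Values are given as percent.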

T1 sequence (P16234 24-1089 V561D): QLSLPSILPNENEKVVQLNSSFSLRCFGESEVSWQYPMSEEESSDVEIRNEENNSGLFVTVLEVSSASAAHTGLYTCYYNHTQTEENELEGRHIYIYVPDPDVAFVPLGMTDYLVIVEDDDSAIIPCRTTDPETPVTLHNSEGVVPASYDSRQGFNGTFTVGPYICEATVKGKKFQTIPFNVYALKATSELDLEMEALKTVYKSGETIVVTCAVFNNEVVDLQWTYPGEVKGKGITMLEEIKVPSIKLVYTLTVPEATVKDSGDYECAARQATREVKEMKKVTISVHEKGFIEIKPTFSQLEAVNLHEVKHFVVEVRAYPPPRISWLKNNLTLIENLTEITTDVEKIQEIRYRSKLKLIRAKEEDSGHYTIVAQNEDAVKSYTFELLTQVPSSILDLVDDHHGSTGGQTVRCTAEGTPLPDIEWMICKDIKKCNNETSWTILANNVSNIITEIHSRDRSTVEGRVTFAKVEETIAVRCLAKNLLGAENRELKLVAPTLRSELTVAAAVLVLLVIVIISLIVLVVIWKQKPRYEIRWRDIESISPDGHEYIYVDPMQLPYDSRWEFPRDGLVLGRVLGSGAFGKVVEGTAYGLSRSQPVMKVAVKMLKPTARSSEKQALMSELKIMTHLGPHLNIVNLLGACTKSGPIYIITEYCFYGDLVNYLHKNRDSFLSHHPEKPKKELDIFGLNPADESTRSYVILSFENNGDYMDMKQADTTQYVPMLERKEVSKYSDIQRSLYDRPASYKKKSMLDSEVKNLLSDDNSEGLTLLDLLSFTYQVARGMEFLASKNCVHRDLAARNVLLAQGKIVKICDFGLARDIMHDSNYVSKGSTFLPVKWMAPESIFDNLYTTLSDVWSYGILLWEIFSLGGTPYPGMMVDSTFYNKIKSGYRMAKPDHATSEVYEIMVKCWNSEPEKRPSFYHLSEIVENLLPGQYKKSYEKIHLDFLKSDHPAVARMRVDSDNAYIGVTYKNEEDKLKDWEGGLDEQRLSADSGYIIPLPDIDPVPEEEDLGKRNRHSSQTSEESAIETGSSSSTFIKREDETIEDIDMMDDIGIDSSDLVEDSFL

## CN(C(=O)CN1CCOCC1)c1ccc2sc3c(-c4cccc5c(=O)cc(N6CC7CCC(C6)O7)oc45)cccc3c2c1 [NU5455]
  inhibition at 1 µM: -2.3%
